Common to all, as to experiment: biochemical
One experiment deals with HLA-DR DRB1*03:01 (Homo sapiens, UniProt P01903+P01911, A100K/A102G/A103R/A169T/F55Y/I96L/K41T/L162R/M171V/P40S/Q125H/Q178H/Q39Y/R42S/S66N/T106N/T262R/W38E/Y61H). The format is binding.
A further experiment deals with HLA-DR DRB1*08:02 (Homo sapiens, UniProt P01903+P01911, A100R/A103L/A169T/F76Y/H45Y/I96F/K41T/L162R/M171V/P40S/Q125H/Q178H/Q39Y/Q99D/R218S/R42G/S66Y/V115G/W38E). The format is binding.
The target of a further experiment is HLA-DR DRB1*09:01 (Homo sapiens, UniProt P01903+P01911, A100R/A103E/D57H/D86V/F55Y/F60I/F76Y/I96F/K127E/L162R/M171V/P40D/Q125H/Q99R/R33Q/R42F/S133A/S66N/T210M/V115G/W38K/Y107V/Y59G/Y89S). The format is binding.
Another experiment deals with HLA-DR DRB1*12:01 (Homo sapiens, UniProt P01903+P01911, A100R/A169T/D57E/D86V/F55L/H45Y/K41T/L162R/M171V/P40S/Q125H/Q178H/Q39Y/Q99D/R42G/S66L/T262R/V114A/V67L/W38E/Y59H/Y61H/Y89S). The format is binding.
A further experiment has as its target HLA-DR DRB3*01:01 (Homo sapiens, UniProt P01903+P79483). The format is binding. The note with it: read-out: Binding capacity/IC50 (nM) DRB3*01:01.
For another experiment, the target named is HLA-DR DRB4*01:01 (Homo sapiens, UniProt P01903+P13762, G164S). The format is binding.
The next experiment deals with HLA-DR DRB5*01:01 (Homo sapiens, UniProt P01903+Q30154). The format is binding.
For experiment [1], the target named is T1, HLA-DP DPA1*01:03/DPB1*03:01 (Homo sapiens, UniProt P04440+P20036, A65V/A84D/A85E/E86D/F38Y/G113D/G114E/G40L/I94L/L37V/M105V/M116V/P115A/R125K/T199I).
T1 sequence (P20036 29-260): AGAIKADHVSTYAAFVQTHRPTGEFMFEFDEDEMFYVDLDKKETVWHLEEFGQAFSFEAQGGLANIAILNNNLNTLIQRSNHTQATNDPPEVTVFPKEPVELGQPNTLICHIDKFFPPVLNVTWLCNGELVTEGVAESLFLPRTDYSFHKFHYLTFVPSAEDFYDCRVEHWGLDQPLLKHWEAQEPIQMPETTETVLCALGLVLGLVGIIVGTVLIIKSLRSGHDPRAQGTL
T1 sequence (P04440 30-258 L37V/F38Y/G40L/A65V/A84D/A85E/E86D/I94L/M105V/G113D/G114E/P115A/M116V/R125K/T199I): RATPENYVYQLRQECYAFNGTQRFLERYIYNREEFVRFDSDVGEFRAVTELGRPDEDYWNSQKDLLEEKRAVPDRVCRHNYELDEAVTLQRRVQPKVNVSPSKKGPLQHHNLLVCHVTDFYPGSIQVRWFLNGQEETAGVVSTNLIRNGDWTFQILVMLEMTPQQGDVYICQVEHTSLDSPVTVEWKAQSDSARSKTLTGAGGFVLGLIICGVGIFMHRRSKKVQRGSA
It counts as binding.

Experiment [2] deals with T2, HLA-DP DPA1*02:01/DPB1*05:01 (Homo sapiens, UniProt P04440+P20036, A65V/A84E/F191V/F64L/G113D/G114E/K142R/L158P/M116V/M62Q/P115A/Q81R/R125K/T114A/T199I/T259P/V234M).
T2 sequence (P20036 29-260 A42M/M62Q/Q81R/T114A/K142R/L158P/F191V/T259P): T1 sequence (P20036 29-260) with A14M, M34Q, Q53R, T86A, K114R, L130P, F163V, T231P
T2 sequence (P04440 30-258 F64L/A65V/A84E/G113D/G114E/P115A/M116V/R125K/T199I/V234M): T1 sequence (P04440 30-258 L37V/F38Y/G40L/A65V/A84D/A85E/E86D/I94L/M105V/G113D/G114E/P115A/M116V/R125K/T199I) with V8L, Y9F, L11G, F35L, D55E, E56A, D57E, L65I, V76M, V205M
It counts as binding.

In experiment [3] the target is T3, HLA-DP DPA1*02:01/DPB1*14:01 (Homo sapiens, UniProt P04440+P20036, A65V/A84D/A85E/E86D/F191V/F38H/G113D/G114E/G40L/I94L/K142R/L158P/L37V/M105V/M116V/M62Q/P115A/Q81R/R125K/T114A/T199I/T259P).
T3 sequence (P20036 29-260 A42M/M62Q/Q81R/T114A/K142R/L158P/F191V/T259P): T1 sequence (P20036 29-260) with A14M, M34Q, Q53R, T86A, K114R, L130P, F163V, T231P
T3 sequence (P04440 30-258 L37V/F38H/G40L/A65V/A84D/A85E/E86D/I94L/M105V/G113D/G114E/P115A/M116V/R125K/T199I/R223Q): T1 sequence (P04440 30-258 L37V/F38Y/G40L/A65V/A84D/A85E/E86D/I94L/M105V/G113D/G114E/P115A/M116V/R125K/T199I) with Y9H, R194Q
It counts as binding.

Experiment [4] deals with HLA-DP DPA1*03:01/DPB1*04:02 (Homo sapiens, UniProt P04440+P20036, A42M/A65V/A84D/A85E/L207M/L97S).
The mark [5] stands for this setting: read-out: Binding capacity/IC50 (nM) DRB1*03:01.
Setting [6] is: read-out: Binding capacity/IC50 (nM) DRB1*08:02.
The mark [7] stands for this setting: read-out: Binding capacity/IC50 (nM) DRB1*09:01.
Setting [8] is: read-out: Binding capacity/IC50 (nM) DRB1*12:01.
[9] abbreviates: read-out: Binding capacity/IC50 (nM) DRB4*01:01.
Where [10] appears, read: read-out: Binding capacity/IC50 (nM) DRB5*01:01.
Where [11] appears, read: read-out: Binding capacity/IC50 (nM) DPA1*01:03 DPB1*03:01.
Where [12] appears, read: read-out: Binding capacity/IC50 (nM) DPA1*02:01 DPB1*05:01.
The mark [13] stands for this setting: read-out: Binding capacity/IC50 (nM) DPA1*02:01 DPB1*14:01.

Substitutions are numbered along the chain they refer to. Where two headings read alike, the source gives them in different places. Ends that are not written are not given here.

Take `CC[C@H](C)[C@H](NC(=O)[C@H](CCCCN)NC(=O)[C@H](CCC(N)=O)NC(=O)[C@@H](NC(=O)[C@H](C)NC(=O)[C@H](CCC(=O)O)NC(=O)[C@@H](N)[C@@H](C)O)C(C)C)C(=O)N[C@@H](C)C(=O)N[C@H](C(=O)N[C@@H](CCC(=O)O)C(=O)N[C@@H](CO)C(=O)N[C@H](C(=O)N[C@H](C(=O)N[C@H](C(=O)N[C@@H](Cc1c[nH]c2ccccc12)C(=O)NCC(=O)N[C@@H](CCCCN)C(=O)N[C@H](C(=O)N1CCC[C@H]1C(=O)N[C@@H](CCCCN)C(=O)N[C@@H](Cc1ccccc1)C(=O)N[C@@H](CCCNC(=N)N)C(=O)N[C@@H](CC(C)C)C(N)=O)[C@@H](C)O)[C@@H](C)CC)C(C)C)[C@@H](C)CC)[C@@H](C)O` [RT(369-391)]: the IC50 stood at 287 nM at HLA-DR DRB1*03:01 (setting [5]); 24 nM at HLA-DR DRB1*08:02 (setting [6]); 310 nM on HLA-DR DRB1*09:01 (setting [7]); 471 nM on HLA-DR DRB1*12:01 (setting [8]); 6230 nM at HLA-DR DRB3*01:01; 20 nM on HLA-DR DRB4*01:01 (setting [9]). The IC50 on HLA-DR DRB5*01:01 (setting [10]) stood at 68 nM; in experiment [1] (setting [11]), 5360 nM; in experiment [2] (setting [12]), 154 nM; in experiment [3] (setting [13]) it was 78 nM; in experiment [4], 1740 nM.
As for `CC[C@H](C)[C@H](NC(=O)[C@@H](NC(=O)[C@H](CCCCN)NC(=O)[C@@H](NC(=O)[C@@H]1CCCN1C(=O)[C@H](Cc1c[nH]c2ccccc12)NC(=O)[C@H](CCCNC(=N)N)NC(=O)CNC(=O)[C@H](C)NC(=O)[C@H](CC(C)C)NC(=O)[C@H](CCCCN)NC(=O)[C@H](CC(C)C)NC(=O)[C@@H](NC(=O)[C@H](Cc1ccccc1)NC(=O)[C@H](Cc1ccc(O)cc1)NC(=O)[C@H](C)NC(=O)[C@@H](NC(=O)[C@@H](N)CCC(=O)O)[C@@H](C)O)[C@@H](C)CC)C(C)C)C(C)C)C(N)=O` [integrase(96-113)], the IC50 on HLA-DR DRB1*03:01 (setting [5]) stood at 224 nM; at HLA-DR DRB1*08:02 (setting [6]), 365 nM; at HLA-DR DRB1*09:01 (setting [7]) it was 390 nM; on HLA-DR DRB1*12:01 (setting [8]), 1510 nM; at HLA-DR DRB3*01:01 it was 583 nM; at HLA-DR DRB4*01:01 (setting [9]) it was 3080 nM. Besides, the IC50 was 4.4 nM on HLA-DR DRB5*01:01 (setting [10]); 1020 nM in experiment [1] (setting [11]); 621 nM in experiment [2]; 12800 nM in experiment [3] (setting [13]); 141 nM in [4].
As for SEELRSLYNTVATLYCVHQ-NH2 [p17(72-90)], the IC50 on HLA-DR DRB1*03:01 (setting [5]) worked out at 652 nM; at HLA-DR DRB1*08:02 (setting [6]) it was 73 nM; at HLA-DR DRB1*09:01 (setting [7]), 217 nM; on HLA-DR DRB1*12:01 (setting [8]), 1680 nM; on HLA-DR DRB3*01:01, 907 nM; on HLA-DR DRB4*01:01 (setting [9]), 1100 nM. Further, the IC50 at HLA-DR DRB5*01:01 (setting [10]) turned out to be 435 nM; in experiment [1] it was 1740 nM; in [2] (setting [12]), 1900 nM; in experiment [3] it was 9710 nM; in [4], 83 nM.
As for `CC[C@H](C)[C@H](NC(=O)[C@H](C)NC(=O)[C@H](CCCCN)NC(=O)[C@H](CCCCN)NC(=O)CNC(=O)[C@H](CS)NC(=O)[C@@H](NC(=O)[C@H](CCC(=O)O)NC(=O)[C@@H](NC(=O)[C@H](CC(C)C)NC(=O)[C@@H](NC(=O)[C@H](CCC(N)=O)NC(=O)[C@H](CC(=O)O)NC(=O)[C@H](Cc1ccc(O)cc1)NC(=O)[C@H](CCC(N)=O)NC(=O)[C@H](CCCNC(=N)N)NC(=O)[C@@H](NC(=O)[C@H](CCCCN)NC(=O)[C@@H](NC(=O)[C@@H](N)Cc1ccccc1)[C@@H](C)CC)C(C)C)[C@@H](C)CC)[C@@H](C)CC)[C@@H](C)CC)C(=O)NCC(=O)N[C@H](C(=O)N[C@H](C(N)=O)C(C)C)[C@@H](C)O` [protease(53-75)], the IC50 amounted to 347 nM at HLA-DR DRB1*03:01; 325 nM against HLA-DR DRB1*08:02; 234 nM on HLA-DR DRB1*09:01; 77 nM on HLA-DR DRB1*12:01; 545 nM on HLA-DR DRB3*01:01; 302 nM on HLA-DR DRB4*01:01 (setting [9]). Further, the IC50 on HLA-DR DRB5*01:01 (setting [10]) is 93 nM; in experiment [1] (setting [11]), 9.4 nM; in experiment [2] (setting [12]), 53 nM; in experiment [3] (setting [13]), 1250 nM; in experiment [4], 342 nM.
In the case of VGSLQYLALTALITPKK-NH2 [vif(142-158)], the IC50 on HLA-DR DRB1*03:01 came out at 4510 nM; at HLA-DR DRB1*08:02, 25 nM; against HLA-DR DRB1*09:01, 64 nM; on HLA-DR DRB1*12:01, 1670 nM; on HLA-DR DRB3*01:01, 942 nM; against HLA-DR DRB4*01:01 it was 78 nM. The IC50 against HLA-DR DRB5*01:01 turned out to be 2.4 nM; in experiment [1] it was 74 nM; in [2] (setting [12]) it was 20 nM; in experiment [3], 71 nM; in experiment [4], 1.5 nM.
